Experimental data from article PMC4553520, “Laboratory and Simulated Field Bioassays to Evaluate Larvicidal Activity of Pinus densiflora Hydrodistillate, Its Constituents and Structurally Related Compounds against Aedes albopictus, Aedes aegypti and Culex pipiens pallens in Relation to Their Inhibitory Effects on Acetylcholinesterase Activity” (Insects, 2013).

Tests used:
[1] = tested on: early third-instar larvae of Cx. p. pallens; experiment: Direct-contact mortality bioassay, laboratory-reared Cx. p. pallens larvae; conditions: laboratory-reared early third-instar larvae, 24 h exposure, direct contact
Protocol: (§1) Direct-contact mortality bioassays were employed to evaluate the toxicity of all compounds, using early third-instar larvae of each mosquito species. Each compound was dissolved in methanol, and then further diluted in distilled water containing Triton X-100 (20 µL/L). Groups of 20 mosquito larvae of each species were put into separate paper cups (270 mL), each containing different compound solutions (250 mL). The toxicity of each compound was determined by repeating this experimental procedure with different concentrations, ranging from 5 to 200 mg/L. Temephos and fenthion served as standard references and were similarly formulated as well. Controls contained only methanol-Triton X-100 carrier solution in distilled water.
(§2) Both treated and control larvae were kept under the same conditions as those used for colony maintenance. […] Due to certain constraints arising from the number of available larvae, all necessary bioassays could not be conducted simultaneously and thus, treatments were conducted over a period of time, with a separate control treatment included each time. Freshly prepared compound solutions were used for each round of bioassays. All bioassays were repeated three times.
(§3) Concentration-mortality data were subjected to probit analysis using SAS [20]. […] Furthermore, for the compounds tested in AChE inhibition assays, a correlation analysis between their LC50 values and IC50 values was conducted using SAS [20].

[2] = target: acetylcholinesterase (AChE) extracted from the heads of larval Cx. p. pallens (Culex pipiens pallens, UniProt Q86GC8); experiment: AChE inhibition assay, Cx. p. pallens; type: biochemical; conditions: in vitro
acetylcholinesterase (AChE) extracted from the heads of larval Cx. p. pallens, sequence (Q86GC8 37-702): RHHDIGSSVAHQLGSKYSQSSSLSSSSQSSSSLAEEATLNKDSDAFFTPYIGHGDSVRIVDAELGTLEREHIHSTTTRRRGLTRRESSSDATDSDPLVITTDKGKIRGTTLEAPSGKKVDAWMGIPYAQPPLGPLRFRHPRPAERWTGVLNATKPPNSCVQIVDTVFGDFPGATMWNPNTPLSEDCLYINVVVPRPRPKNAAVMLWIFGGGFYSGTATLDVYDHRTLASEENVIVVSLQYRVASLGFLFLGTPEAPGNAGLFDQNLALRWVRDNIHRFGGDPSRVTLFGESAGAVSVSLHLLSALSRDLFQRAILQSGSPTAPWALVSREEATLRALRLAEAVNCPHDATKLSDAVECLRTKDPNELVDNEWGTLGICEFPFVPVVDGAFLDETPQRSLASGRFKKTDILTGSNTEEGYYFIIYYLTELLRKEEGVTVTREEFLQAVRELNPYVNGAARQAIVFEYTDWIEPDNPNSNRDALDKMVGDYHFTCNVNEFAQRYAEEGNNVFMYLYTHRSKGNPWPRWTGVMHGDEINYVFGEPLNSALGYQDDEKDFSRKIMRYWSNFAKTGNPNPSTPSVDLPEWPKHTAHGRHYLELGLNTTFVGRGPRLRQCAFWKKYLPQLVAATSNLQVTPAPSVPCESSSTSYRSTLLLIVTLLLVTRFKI
Protocol: (§4) For each species, larvae frozen at −20 °C were decapitated and 100 heads were homogenized in 5 mL of ice-cold 0.1 M sodium phosphate buffer (pH 8.0), using a Teflon glass tissue homogenizer. The homogenate was centrifuged at 10,000 × g at 4 °C for 20 min. The supernatant was filtered by a 0.22 µm-Millex-GV filter (Millipore, Cork, Ireland) and was used as the AChE preparation. Protein concentrations were determined by the Bradford dye method using BSA as the standard. A microplate AChE assay was carried out following the method of Moores et al. adapted from Ellman et al.. The reaction mixture consisted of 80 µL of the crude enzyme preparation, 10 µL of 7.5 mM DTNB in phosphate buffer (pH 7.0) and 100 µL of the selected test compounds of various concentrations in 2.5% acetone. The reaction mixture was incubated at 30 °C for 5 min and 10 µL of 6.25 mM ATChI was then added to the mixture. The absorbance was recorded at 414 nm, using a Molecular Devices VersaMax microplate reader (Sunnyvale, CA, USA). All AChE inhibition assays were repeated three times in triplicates.
as §3

[3] = tested on: early third-instar larvae of Ae. aegypti; experiment: Direct-contact mortality bioassay, Ae. aegypti larvae; conditions: early third-instar larvae, 24 h exposure, direct contact
Protocol: as §1, §2, §3

[4] = target: acetylcholinesterase (AChE) extracted from the heads of larval Ae. aegypti (Aedes aegypti, UniProt Q6A2E2); experiment: AChE inhibition assay, Ae. aegypti; type: biochemical; conditions: in vitro
acetylcholinesterase (AChE) extracted from the heads of larval Ae. aegypti, sequence (Q6A2E2 37-679): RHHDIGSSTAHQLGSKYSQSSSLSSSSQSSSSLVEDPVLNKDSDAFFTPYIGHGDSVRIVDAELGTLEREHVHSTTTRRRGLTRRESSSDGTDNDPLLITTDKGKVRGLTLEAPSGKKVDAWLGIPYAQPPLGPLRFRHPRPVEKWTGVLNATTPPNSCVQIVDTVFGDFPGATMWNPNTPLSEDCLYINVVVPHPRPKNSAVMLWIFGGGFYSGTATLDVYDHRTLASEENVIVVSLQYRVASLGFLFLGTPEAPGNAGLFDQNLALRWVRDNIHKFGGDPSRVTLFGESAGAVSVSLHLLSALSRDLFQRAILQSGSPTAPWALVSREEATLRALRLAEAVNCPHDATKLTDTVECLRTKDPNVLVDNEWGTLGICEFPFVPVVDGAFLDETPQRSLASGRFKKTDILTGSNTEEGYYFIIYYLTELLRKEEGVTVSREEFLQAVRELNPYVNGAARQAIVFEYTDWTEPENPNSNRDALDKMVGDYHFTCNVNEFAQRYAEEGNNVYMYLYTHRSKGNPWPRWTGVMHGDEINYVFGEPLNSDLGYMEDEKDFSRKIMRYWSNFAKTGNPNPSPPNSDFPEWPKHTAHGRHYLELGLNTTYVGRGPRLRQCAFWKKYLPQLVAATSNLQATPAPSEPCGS
Protocol: as §4, §3

[5] = target: acetylcholinesterase (AChE) extracted from the heads of larval Ae. albopictus (Aedes albopictus, UniProt Q2PGF2); experiment: AChE inhibition assay, Ae. albopictus; type: biochemical; conditions: in vitro
acetylcholinesterase (AChE) extracted from the heads of larval Ae. albopictus, sequence (Q2PGF2 37-680): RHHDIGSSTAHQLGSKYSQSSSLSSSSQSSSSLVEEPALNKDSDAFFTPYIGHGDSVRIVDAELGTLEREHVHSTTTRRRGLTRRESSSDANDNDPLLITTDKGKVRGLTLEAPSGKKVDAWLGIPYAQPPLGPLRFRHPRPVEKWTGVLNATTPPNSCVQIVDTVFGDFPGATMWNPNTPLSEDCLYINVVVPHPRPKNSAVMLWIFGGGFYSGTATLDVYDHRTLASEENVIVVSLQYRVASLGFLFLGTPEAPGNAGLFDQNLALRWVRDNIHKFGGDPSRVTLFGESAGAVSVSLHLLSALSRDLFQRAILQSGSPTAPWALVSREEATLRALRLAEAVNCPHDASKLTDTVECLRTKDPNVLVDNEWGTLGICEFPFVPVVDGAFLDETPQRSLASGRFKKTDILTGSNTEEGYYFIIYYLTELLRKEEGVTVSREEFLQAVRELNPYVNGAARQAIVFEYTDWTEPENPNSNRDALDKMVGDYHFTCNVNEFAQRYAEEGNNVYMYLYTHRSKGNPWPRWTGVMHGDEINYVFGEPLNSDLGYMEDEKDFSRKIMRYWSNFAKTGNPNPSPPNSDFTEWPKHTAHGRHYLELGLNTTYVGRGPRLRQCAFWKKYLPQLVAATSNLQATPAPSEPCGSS
Protocol: as §4, §3

[6] = tested on: early third-instar larvae of Ae. albopictus; experiment: Direct-contact mortality bioassay, Ae. albopictus larvae; conditions: early third-instar larvae, 24 h exposure, direct contact
Protocol: as §1, §2, §3

| Molecule | LC50 (Cx p. pallens), mg/L (95% CL) [1] | IC50 [2] [mM] | LC50 (Ae. aegypti), mg/L (95% CL) [3] [mg/L] | IC50 [4] [mM] | IC50 [5] [mM] | LC50 (Ae. albopictus), mg/L (95% CL) [6] |
| --- | --- | --- | --- | --- | --- | --- |
| C/C1=C\CC/C(C)=C/CC(C)(C)/C=C/C1 [α-humulene] | >150 mg/L | 62.3 | >150 | 58.1 | 47.6 | >150 mg/L |
| (−)-myrtenal | 139.61 (122.92–169.77) mg/L | 31.6 | >150 | 34 | 23.7 | 137.86 (119.15–173.91) mg/L |
